Measured values published in patent US9446128B2 (priority 2008, dated 2016).
Several values for one entry are separate records, joined by “and”; a condition that tells them apart may be missing. Identical values can stand only once.

Tested on: salmonella typimurium TA100
Test: Microorganism reverse mutation test, strain TA100
Details: TA100, positive control, 1 μg/plate
Description: The principle of this test is to make use of histidine-requiring strains that are not alive without histidine. This test is performed for detecting histidine recovery, which is original strain property, caused by mutagen in a mutant test.
To carry out the microorganism reverse mutation test, the test was conducted on test standard strains, salmonella typimurium TA98, TA100, TA1535 and TA1537 as pre-culture. […] The salmonella typimurium TA100 is a test strain upon the reversion of guanine and cytosine in a gene, and the salmonella typimurium TA102 is a test strain upon the reversion of adenine and thymine.
As a negative control group, distilled water was used.
The respective test materials, positive control group chemicals, distilled water were treated on a plate, and thereafter the number of revertant strains was measured.

[N-]=[N+]=[N-] [sodium azide]
Average number of revertant strains: 1,279 and 1,559
Number of revertant strains: 1,136 and 1,421 and 1,662 and 1,456
